# In ChEMBL document CHEMBL1177796, “Efficient synthesis of galactosylceramide analogues for iNKT cell stimulation” (Bioorg Med Chem Lett, 2010):
# The source made the active and inactive calls. The rule behind the calls is not given here.
# Tested on: iNKT
# Assay: Stimulation of human iNKT cell proliferation
# Format: functional, cell-based
row,SMILES,Activity
1,CCCCCCCCCCCCCCCCCCCCCCCCCC(=O)N[C@@H](/C=N/O[C@H]1O[C@H](CO)[C@H](O)[C@H](O)[C@H]1O)[C@H](O)[C@H](O)CCCCCCCCCCCCCC,Active
2,CCCCCCCCCCCCCCCCCCCCCCCCCC(=O)N[C@@H](/C=N/O[C@@H]1O[C@H](CO)[C@H](O)[C@H](O)[C@H]1O)[C@H](O)[C@H](O)CCCCCCCCCCCCCC,Active
